Like-named read-outs stand apart in the source and are kept apart here.
Legend:
Pythium ultimum = experiment: Mycelial growth test; type: cell-based; details: Globisporangium ultimum, 72 h, PU, read-out: Percent Fungus Growth Inhibition
Pyricularia oryzae = type: cell-based; details: PO, 48 hours

Compound: Cc1ccc(Oc2nsnc(Cl)c2=O)c(Br)c1 [Compound 57, 3-[(2-bromo-4-methyl)-phenoxy]-5-chloro-4H--1,2,6-thiadiazin-4-one]
- inhibition at 5 ppm (Pythium ultimum): 42%
- inhibition at 10 ppm (Pythium ultimum): 60%
- inhibition at 20 ppm (Pythium ultimum): 100%
- inhibition at 40 ppm (Pythium ultimum): 100%
- Spore Germination Rating (Pyricularia oryzae; 1.0 ppm): 0 (0-10)
- Spore Germination Rating (Pyricularia oryzae; 2.5 ppm): 2 (40-60)
- Spore Germination Rating (Pyricularia oryzae; 10 ppm): 0 (0-10)
- Spore Germination Rating (Pyricularia oryzae; 40 ppm): 0 (0-10)

Compound: CC(=O)Nc1ccc(Oc2nsnc(Cl)c2=O)cc1 [Compound 8, 5-(4-acetylaminophenoxy)-3-chloro-4H--1,2,6-thiadiazin-4-one]
- inhibition at 5 ppm (Pythium ultimum): 0%
- inhibition at 10 ppm (Pythium ultimum): 100%
- inhibition at 20 ppm (Pythium ultimum): 100%
- inhibition at 40 ppm (Pythium ultimum): 100%
- Spore Germination Rating (Pyricularia oryzae; 1.0 ppm): 4 (80-100)
- Spore Germination Rating (Pyricularia oryzae; 2.5 ppm): 3 (60-80)
- Spore Germination Rating (Pyricularia oryzae; 10 ppm): 0 (0-10)
- Spore Germination Rating (Pyricularia oryzae; 40 ppm): 0 (0-10)

Compound: CSc1ccc(Oc2nsnc(Cl)c2=O)cc1 [Compound 39, 3-chloro-5-[(4-methylthio)phenoxy]-4H-1,2,6,-thiadiazin-4-one]
- inhibition at 5 ppm (Pythium ultimum): 0%
- inhibition at 10 ppm (Pythium ultimum): 24%
- inhibition at 20 ppm (Pythium ultimum): 100%
- inhibition at 40 ppm (Pythium ultimum): 100%
- Spore Germination Rating (Pyricularia oryzae; 1.0 ppm): 2 (40-60)
- Spore Germination Rating (Pyricularia oryzae; 2.5 ppm): 1 (10-40)
- Spore Germination Rating (Pyricularia oryzae; 10 ppm): 1 (10-40)
- Spore Germination Rating (Pyricularia oryzae; 40 ppm): 0 (0-10)

Compound: O=C(O)c1ccc(Oc2nsnc(Cl)c2=O)cc1 [Compound 50, 3-(4-carboxyphenoxy)-5-chloro-4H--1,2,6-thiadiazin-4-one]
- inhibition at 5 ppm (Pythium ultimum): 20%
- inhibition at 10 ppm (Pythium ultimum): 0%
- inhibition at 20 ppm (Pythium ultimum): 47%
- inhibition at 40 ppm (Pythium ultimum): 100%
- Spore Germination Rating (Pyricularia oryzae; 1.0 ppm): 4 (80-100)
- Spore Germination Rating (Pyricularia oryzae; 2.5 ppm): 4 (80-100)
- Spore Germination Rating (Pyricularia oryzae; 10 ppm): 4 (80-100)
- Spore Germination Rating (Pyricularia oryzae; 40 ppm): 0 (0-10)

Compound: CNC(=O)Nc1ccc(Oc2nsnc(Cl)c2=O)cc1 [Compound 28, 3-chloro-5-[4-(3-methylureido)-phenoxy]-4H--1,2,6-thiadiazin-4-one]
- inhibition at 5 ppm (Pythium ultimum): 0%
- inhibition at 10 ppm (Pythium ultimum): 80%
- inhibition at 20 ppm (Pythium ultimum): 91%
- inhibition at 40 ppm (Pythium ultimum): 100%
- Spore Germination Rating (Pyricularia oryzae; 1.0 ppm): 4 (80-100)
- Spore Germination Rating (Pyricularia oryzae; 2.5 ppm): 4 (80-100)
- Spore Germination Rating (Pyricularia oryzae; 10 ppm): 4 (80-100)
- Spore Germination Rating (Pyricularia oryzae; 40 ppm): 1 (10-40)

Compound: CC(=O)Nc1cccc(Oc2nsnc(Cl)c2=O)c1 [Compound 42, 3-[(3-N--acetylamino)-phenoxy]-5-chloro-4H--1,2,6-thiadiazin-4-one]
- inhibition at 5 ppm (Pythium ultimum): 0%
- inhibition at 10 ppm (Pythium ultimum): 42%
- inhibition at 20 ppm (Pythium ultimum): 100%
- inhibition at 40 ppm (Pythium ultimum): 100%
- Spore Germination Rating (Pyricularia oryzae; 1.0 ppm): 4 (80-100)
- Spore Germination Rating (Pyricularia oryzae; 2.5 ppm): 4 (80-100)
- Spore Germination Rating (Pyricularia oryzae; 10 ppm): 3 (60-80)
- Spore Germination Rating (Pyricularia oryzae; 40 ppm): 0 (0-10)

Compound: O=c1c(Cl)nsnc1Oc1c(Cl)cccc1Cl [Compound 18, 3-chloro-5-(2,6-dichlorophenoxy)-4H--1,2,6-thiadiazin-4-one]
- inhibition at 5 ppm (Pythium ultimum): 13%
- inhibition at 10 ppm (Pythium ultimum): 60%
- inhibition at 20 ppm (Pythium ultimum): 100%
- inhibition at 40 ppm (Pythium ultimum): 100%
- Spore Germination Rating (Pyricularia oryzae; 1.0 ppm): 4 (80-100)
- Spore Germination Rating (Pyricularia oryzae; 2.5 ppm): 2 (40-60)
- Spore Germination Rating (Pyricularia oryzae; 10 ppm): 0 (0-10)
- Spore Germination Rating (Pyricularia oryzae; 40 ppm): 0 (0-10)

Compound: Cc1cc(Cl)c(Oc2nsnc(Cl)c2=O)cc1C [Compound 58, 3-chloro-5-[(2-chloro-4,5-dimethyl)phenoxy]-4H--1,2,6-thiadiazin-4-one]
- inhibition at 5 ppm (Pythium ultimum): 13%
- inhibition at 10 ppm (Pythium ultimum): 24%
- inhibition at 20 ppm (Pythium ultimum): 0%
- inhibition at 40 ppm (Pythium ultimum): 13%
- Spore Germination Rating (Pyricularia oryzae; 1.0 ppm): 4 (80-100)
- Spore Germination Rating (Pyricularia oryzae; 2.5 ppm): 0 (0-10)
- Spore Germination Rating (Pyricularia oryzae; 10 ppm): 0 (0-10)
- Spore Germination Rating (Pyricularia oryzae; 40 ppm): 0 (0-10)

Compound: O=c1c(Cl)nsnc1Oc1cccc(Cl)c1Cl [Compound 19, 3-chloro-5-(2,3-dichlorophenoxy)-4H--1,2,6-thiadiazin-4-one]
- inhibition at 5 ppm (Pythium ultimum): 20%
- inhibition at 10 ppm (Pythium ultimum): 80%
- inhibition at 20 ppm (Pythium ultimum): 100%
- inhibition at 40 ppm (Pythium ultimum): 100%
- Spore Germination Rating (Pyricularia oryzae; 1.0 ppm): 3 (60-80)
- Spore Germination Rating (Pyricularia oryzae; 2.5 ppm): 0 (0-10)
- Spore Germination Rating (Pyricularia oryzae; 10 ppm): 0 (0-10)
- Spore Germination Rating (Pyricularia oryzae; 40 ppm): 0 (0-10)

Compound: O=c1c(Cl)nsnc1Oc1ccc(Cl)cc1 [Compound 12, 3-chloro-5-(4-chlorophenoxy)-4H--1,2,6-thiadiazin-4-one]
- inhibition at 5 ppm (Pythium ultimum): 42%
- inhibition at 10 ppm (Pythium ultimum): 100%
- inhibition at 20 ppm (Pythium ultimum): 100%
- inhibition at 40 ppm (Pythium ultimum): 100%
- Spore Germination Rating (Pyricularia oryzae; 1.0 ppm): 0 (0-10)
- Spore Germination Rating (Pyricularia oryzae; 2.5 ppm): 0 (0-10)
- Spore Germination Rating (Pyricularia oryzae; 10 ppm): 0 (0-10)
- Spore Germination Rating (Pyricularia oryzae; 40 ppm): 0 (0-10)

Compound: O=c1c(Cl)nsnc1Oc1ccc(O)cc1 [Compound 35, 3-chloro-5-(4-hydroxyphenoxy)-4H-1,2,6-thiadiazin-4-one]
- inhibition at 5 ppm (Pythium ultimum): 0%
- inhibition at 10 ppm (Pythium ultimum): 11%
- inhibition at 20 ppm (Pythium ultimum): 100%
- inhibition at 40 ppm (Pythium ultimum): 100%
- Spore Germination Rating (Pyricularia oryzae; 1.0 ppm): 2 (40-60)
- Spore Germination Rating (Pyricularia oryzae; 2.5 ppm): 0 (0-10)
- Spore Germination Rating (Pyricularia oryzae; 10 ppm): 0 (0-10)
- Spore Germination Rating (Pyricularia oryzae; 40 ppm): 0 (0-10)

Compound: O=C(O)Cc1ccccc1Oc1nsnc(Cl)c1=O [Compound 45, 3-(2-carboxymethylphenoxy)-5-chloro-4H--1,2,6-thiadiazin-4-one]
- inhibition at 5 ppm (Pythium ultimum): 0%
- inhibition at 10 ppm (Pythium ultimum): 42%
- inhibition at 20 ppm (Pythium ultimum): 69%
- inhibition at 40 ppm (Pythium ultimum): 100%
- Spore Germination Rating (Pyricularia oryzae; 1.0 ppm): 4 (80-100)
- Spore Germination Rating (Pyricularia oryzae; 2.5 ppm): 4 (80-100)
- Spore Germination Rating (Pyricularia oryzae; 10 ppm): 4 (80-100)
- Spore Germination Rating (Pyricularia oryzae; 40 ppm): 1 (10-40)

Compound: CCCCOc1ccc(Oc2nsnc(Cl)c2=O)cc1 [Compound 6, 3-chloro-5-(4-n-butoxyphenoxy)-4H--1,2,6-thiadiazin-4-one]
- inhibition at 5 ppm (Pythium ultimum): 0%
- inhibition at 10 ppm (Pythium ultimum): 0%
- inhibition at 20 ppm (Pythium ultimum): 0%
- inhibition at 40 ppm (Pythium ultimum): 22%
- Spore Germination Rating (Pyricularia oryzae; 1.0 ppm): 2 (40-60)
- Spore Germination Rating (Pyricularia oryzae; 2.5 ppm): 1 (10-40)
- Spore Germination Rating (Pyricularia oryzae; 10 ppm): 2 (40-60)
- Spore Germination Rating (Pyricularia oryzae; 40 ppm): 0 (0-10)
